Data from patent US10538495B2, “Modulators of indoleamine 2,3-dioxygenase” (GLAXOSMITHKLINE INTELLECTUAL PROPERTY DEVELOPMENT LIMITED, priority 2016, dated 2020).
Read-outs that look alike come from different tables or passages of the source.

Assays:
[1] = target: T1, indoleamine 2,3-dioxygenase (IDO1) (Homo sapiens, UniProt P14902); test: HeLa IDOi assay (kynurenine by mass spectrometry); assay type: cell-based; set-up: human epithelial HeLa cells (CCL-2; host or cells: HeLa cells stimulated with human IFN-γ; details: IFN-γ stimulated HeLa cells, 2 days, kynurenine detected by mass spectrometry; read-out: HeLa pIC50 (converted)
T1 sequence (P14902 whole entry): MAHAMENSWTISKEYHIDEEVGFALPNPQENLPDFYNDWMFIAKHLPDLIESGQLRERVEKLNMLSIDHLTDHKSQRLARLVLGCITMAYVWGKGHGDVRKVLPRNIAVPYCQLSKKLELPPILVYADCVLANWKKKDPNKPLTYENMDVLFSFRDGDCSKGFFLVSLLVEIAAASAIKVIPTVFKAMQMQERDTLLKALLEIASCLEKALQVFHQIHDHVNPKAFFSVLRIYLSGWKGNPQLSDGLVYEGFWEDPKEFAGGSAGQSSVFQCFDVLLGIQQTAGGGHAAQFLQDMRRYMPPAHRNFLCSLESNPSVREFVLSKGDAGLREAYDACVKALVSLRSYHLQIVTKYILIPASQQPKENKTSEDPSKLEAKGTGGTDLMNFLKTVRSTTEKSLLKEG
How it was run: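 HeLa cells (5,000/well) stimulated with 10 nM IFN-γ and exposed to 11-point 3-fold compound dilutions (DMSO stock top typically 5 mM) for 2 days at 37 °C. Supernatant kynurenine quantified by RapidFire MS as ratio to internal standard; cytotoxicity by CellTiter-Glo ATP luminescence. Normalized to unstimulated/stimulated controls; XC50 from four-parameter fit.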

[2] = target: T1, indoleamine 2,3-dioxygenase (IDO1); test: PBMC IDOi assay (kynurenine by mass spectrometry); assay type: cell-based; details: IFN-γ and LPS stimulated human PBMC, 2 days, kynurenine detected by mass spectrometry; read-out: PBMC pIC50 (converted)
Method: Brief descriptions of the cellular assays are provided following the table.
Compounds of the present invention were tested via high-throughput cellular assays utilizing detection of kynurenine via mass spectrometry and cytotoxicity as end-points. For the mass spectrometry and cytotoxicity assays, human peripheral blood mononuclear cells (PBMC) (PB003F; AllCells®, Alameda, Calif.) were stimulated with human interferon-γ (IFN-γ) (Sigma-Aldrich Corporation, St. Louis, Mo.) and lipopolysaccharide from Salmonella minnesota (LPS) (Invivogen, San Diego, Calif.) to induce the expression of indoleamine 2,3-dioxygenase (IDO1). Compounds with IDO1 inhibitory properties decreased the amount of kynurenine produced by the cells via the tryptophan catabolic pathway. Cellular toxicity due to the effect of compound treatment was measured using CellTiter-Glo® reagent (CTG) (Promega Corporation, Madison, Wis.), which is based on luminescent detection of ATP, an indicator of metabolically active cells.
In preparation for the assays, test compounds were serially diluted 3-fold in DMSO from a typical top concentration of 5 mM and plated at 0.5 μL in 384-well, polystyrene, clear bottom, tissue culture treated plates with lids (Greiner Bio-One, Kremsmünster, Austria) to generate 11-point dose response curves. Low control wells (0% kynurenine or 100% cytotoxicity) contained either 0.5 μL of DMSO in the presence of unstimulated (−IFN-γ/−LPS) PBMCs for the mass spectrometry assay or 0.5 μL of DMSO in the absence of cells for the cytotoxicity assay, and high control wells (100% kynurenine or 0% cytotoxicity) contained 0.5 μL of DMSO in the presence of stimulated (+IFN-γ/+LPS) PBMCs for both the mass spectrometry and cytotoxicity assays.
Frozen stocks of PBMCs were washed and recovered in RPMI 1640 medium (Thermo Fisher Scientific, Inc., Waltham, Mass.) supplemented with 10% v/v heat-inactivated fetal bovine serum (FBS) (Thermo Fisher Scientific, Inc., Waltham, Mass.), and 1× penicillin-streptomycin antibiotic solution (Thermo Fisher Scientific, Inc., Waltham, Mass.). The cells were diluted to 1,000,000 cells/mL in the supplemented RPMI 1640 medium. 50 μL of either the cell suspension, for the mass spectrometry assay, or medium alone, for the cytotoxicity assay, were added to the low control wells, on the previously prepared 384-well compound plates, resulting in 50,000 cells/well or 0 cells/well respectively. IFN-γ and LPS were added to the remaining cell suspension at final concentrations of 100 ng/ml and 50 ng/ml respectively, and 50 μL of the stimulated cells were added to all remaining wells on the 384-well compound plates. The plates, with lids, were then placed in a 37° C., 5% CO2 humidified incubator for 2 days.
Following incubation, the 384-well plates were removed from the incubator and allowed to equilibrate to room temperature for 30 minutes. For the cytotoxicity assay, CellTiter-Glo® was prepared according to the manufacturer's instructions, and 40 μL were added to each plate well. After a twenty minute incubation at room temperature, luminescence was read on an EnVision® Multilabel Reader (PerkinElmer Inc., Waltham, Mass.). For the mass spectrometry assay, 10 μL of supernatant from each well of the compound-treated plates were added to 40 μL of acetonitrile, containing 10 μM of an internal standard for normalization, in 384-well, polypropylene, V-bottom plates (Greiner Bio-One, Kremsmünster, Austria) to extract the organic analytes. Following centrifugation at 2000 rpm for 10 minutes, 10 μL from each well of the acetonitrile extraction plates were added to 90 μL of sterile, distilled H2O in 384-well, polypropylene, V-bottom plates for analysis of kynurenine and the internal standard on the RapidFire 300 (Agilent Technologies, Santa Clara, Calif.) and 4000 QTRAP MS (SCIEX, Framingham, Mass.). […]

PAN02 pancreatic cells = details: orally dosed, cited from earlier work
[3] = test system: conversion of T cells into CD4+FoxP3+ Tregs; details: co-culture of DCs and naïve CD4+CD25− T cells; cited from earlier work

Row | IC50 [1] [nM] | IC50 [2] [nM] | SMILES | inhibition of tumor growth (PAN02 pancreatic cells; PAN02 syngeneic model, immunocompetent mice) | inhibition of tumor growth (PAN02 pancreatic cells; same tumor implanted in immune-deficient mice) | conversion of T cells into CD4+FoxP3+ Tregs [3]
1 | 15.8 | 63.1 | Cc1ccc(CC(=O)Nc2cc(-c3ccccc3-c3nnn(COP(=O)(O)O)n3)ccc2SC(C)(C)C)cc1 [Example 51, (5-(4′-(tert-Butylthio)-3′-(2-(p-tolyl)acetamido)-[1,1′-biphenyl]-2-yl)-2H-tetrazol-2-yl)methyl Dihydrogen Phosphate] |  |  | 
2 | 25.1 | 158 | Cc1ccc(CC(=O)Nc2cc(-c3ccccc3-c3nnnn3COP(=O)(O)O)ccc2SC(C)(C)C)cc1 [Example 52, (5-(4′-(tert-Butylthio)-3′-(2-(p-tolyl)acetamido)-[1,1′-biphenyl]-2-yl)-1H-tetrazol-1-yl)methyl Dihydrogen] |  |  | 
3 | 31.6 | 50.1 | Cc1ccc(CC(=O)Nc2cc(-c3ccccc3-c3nnn(COC(=O)C(C)(C)C)n3)ccc2SC(C)(C)C)cc1 [Example 55, (5-(4′-(tert-Butylthio)-3′-(2-(p-tolyl)acetamido)-[1,1′-biphenyl]-2-yl)-2H-tetrazol-2-yl)methyl pivalate] |  |  | 
4 | 31.6 | 20 | Cc1ccc(CC(=O)Nc2cc(-c3ccccc3-c3nnnn3COC(=O)C(C)(C)C)ccc2SC(C)(C)C)cc1 [Example 56, (5-(4′-(tert-butylthio)-3′-(2-(p-tolyl)acetamido)-[1,1′-biphenyl]-2-yl)-1H-tetrazol-1-yl)methyl Pivalate] |  |  | 
5 | 63.1 | 50.1 | Cc1ccc(CC(=O)Nc2cc(-c3ccccc3-c3nnn[nH]3)cnc2SC(C)(C)C)cc1 [Example 64, N-(5-(2-(1H-tetrazol-5-yl)phenyl)-2-(tert-butylthio)pyridin-3-yl)-2-(p-tolyl)acetamide] |  |  | 
6 | 39.8 | 25.1 | CC(C)(C)Sc1ncc(-c2ccccc2-c2nnn[nH]2)cc1NC(=O)Cc1ccc(C(F)(F)F)cc1 [Example 65, N-(5-(2-(1H-tetrazol-5-yl)phenyl)-2-(tert-butylthio)pyridin-3-yl)-2-(4-(trifluoromethyl)phenyl)acetamide] |  |  | 
7 | 10 | 7.94 | Cc1ccc(CC(=O)Nc2cc(-c3ccccc3-c3nnn[nH]3)cnc2SC(C)(C)C)c(C)c1 [Example 66, N-(5-(2-(1H-tetrazol-5-yl)phenyl)-2-(tert-butylthio)pyridin-3-yl)-2-(2,4-dimethylphenyl)acetamide] |  |  | 
8 | 100 | 12.6 | CC(C)(C)Sc1ncc(-c2ccccc2-c2nnn[nH]2)cc1NC(=O)Cc1ccccc1C(F)(F)F [Example 67, N-(5-(2-(1H-tetrazol-5-yl)phenyl)-2-(tert-butylthio)pyridin-3-yl)-2-(2-(trifluoromethyl)phenyl)acetamide] |  |  | 
9 |  |  | NS(=O)(=O)NCCNc1nonc1C(=NO)Nc1ccc(F)c(Br)c1 [INCB204360] | significant dose-dependent inhibition of tumor growth | without effect | blocked the conversion
